Data taken from patent publication US8563779B2, “(4-trifluoromethyl-3-thiobenzoyl)cyclohexanediones and use thereof as herbicides” (Bayer CropScience AG, priority 2010, dated 2013).

How the values were obtained:
ALOMY [1] = assay: Pre-emergence herbicidal action against weed plants; type: in vivo, Alopecurus myosuroides; conditions: dose 320 g a.c./ha, scored after 3 to 4 weeks under glass
From the text: (§1) Water-dispersible granules are also obtained by homogenizing and precomminuting, in a colloid mill, • 25 parts by weight of a compound of the formula (I), • 5 parts by weight of sodium 2,2′-dinaphthylmethane-6,6′-disulfonate, • 2 parts by weight of sodium oleoylmethyltaurinate, • 1 part by weight of polyvinyl alcohol, • 17 parts by weight of calcium carbonate and • 50 parts by weight of water, subsequently grinding the mixture in a bead mill and atomizing and drying the resulting suspension in a spray tower by means of a single-fluid nozzle. C. BIOLOGICAL EXAMPLES 1. Pre-emergence Herbicidal Action Against Weed Plants
(§2) Seeds or rhizome sections of mono- and dicotyledonous weed plants are set out in pots of 9 to 13 cm in diameter, in sandy loam soil, and are covered with soil. The herbicides, formulated as emulsifiable concentrates or dusts, are applied to the surface of the covering earth in the form of aqueous dispersions or suspensions or emulsions, at a water application rate of 300 to 800 l/ha (converted). The pots are then maintained under glass under optimum conditions for the further cultivation of the plants. After 3 to 4 weeks under optimum growth conditions under glass, the trial plants are scored for the effect of the compounds according to the invention in comparison to compounds disclosed in the prior art.

PHBPU [2] = assay: Post-emergence herbicidal action against weed plants; type: in vivo, Pharbitis purpureum; conditions: scored after 3 to 4 weeks under glass
Protocol: (§3) [table] 2. Post-emergence Herbicidal Action Against Weed Plants Seeds of monocotyledonous and dicotyledonous weed plants are set out in cardboard pots in sandy loam soil, covered with soil, and cultivated under glass under good growth conditions. Two to three weeks after sowing, the trial plants are treated at the three-leaf stage. The compounds according to the invention, formulated as wettable powders or as emulsifiable concentrates, are sprayed onto the surface of the green parts of the plants, at a water application rate of 600 to 800 l/ha (converted). After the trial plants have stood for 3 to 4 weeks under optimum growth conditions under glass, the action of the compounds according to the invention is scored in comparison to compounds disclosed in the prior art.

ALOMY [3] = assay: as above; type: in vivo, Alopecurus myosuroides; conditions: dose 80 g a.c./ha, scored after 3 to 4 weeks under glass
Protocol: as §3

PHBPU [4] = assay: Pre-emergence herbicidal action against weed plants; type: in vivo, Pharbitis purpureum; conditions: dose 320 g a.c./ha, scored after 3 to 4 weeks under glass
From the text: as §1, §2

AMARE [5] = assay: Post-emergence herbicidal action against weed plants; type: in vivo; conditions: dose 80 g a.c./ha, scored after 3 to 4 weeks under glass
Protocol: as §3, with “2.” for “[table] 2.”

LOLMU [6] = assay: as above; type: in vivo, Lolium multiflorum; conditions: dose 80 g a.c./ha, scored after 3 to 4 weeks under glass
Protocol: as §3

ABUTH = assay: as above; type: in vivo, Abutilon theophrasti; conditions: dose 80 g a.c./ha, scored after 3 to 4 weeks under glass
Protocol: as §3

PAPRH = assay: as above; type: in vivo, Papaver rhoeas; conditions: dose 50 g a.c./ha, scored after 3 to 4 weeks under glass
Protocol: as §3

MATIN = assay: as above; type: in vivo, Matricaria inodora; conditions: dose 50 g a.c./ha, scored after 3 to 4 weeks under glass
Protocol: as §3

LOLMU [7] = assay: Pre-emergence herbicidal action against weed plants; type: in vivo, Lolium multiflorum; conditions: dose 320 g a.c./ha, scored after 3 to 4 weeks under glass
From the text: as §1, §2

VIOTR = assay: as above; type: in vivo, Viola tricolor; conditions: dose 320 g a.c./ha, scored after 3 to 4 weeks under glass
From the text: as §1, §2

POLCO = assay: as above; type: in vivo, Polygonum convolvulus; conditions: dose 320 g a.c./ha, scored after 3 to 4 weeks under glass
From the text: as §1, §2

CYPES = assay: as above; type: in vivo, Cyperus serotinus; conditions: dose 320 g a.c./ha, scored after 3 to 4 weeks under glass
From the text: as §1, §2

AMARE [8] = assay: as above; type: in vivo; conditions: dose 320 g a.c./ha, scored after 3 to 4 weeks under glass
From the text: as §1, §2

EPHHL = assay: Post-emergence herbicidal action against weed plants; type: in vivo, Euphorbia heterophylla; conditions: dose 12.5 g a.c./ha, scored after 3 to 4 weeks under glass
Protocol: as §3

CCn1ncc(C(=O)c2ccc(C(F)(F)F)c([S+](C)[O-])c2C)c1O (stereo not shown)
Herbicidal action against ALOMY (ALOMY [1]): 70% | Herbicidal action against PHBPU (PHBPU [2]; dose 80 g a.c./ha): 80% | Herbicidal action against ALOMY (ALOMY [3]): 60% | Herbicidal action against PHBPU (PHBPU [4]): 0%

Cc1c(C(=O)C2C(=O)C3CCC(C3)C2=O)ccc(C(F)(F)F)c1[S+](C)[O-] (stereo not shown) [inventive compound No. 1-9]
Herbicidal action against AMARE (AMARE [5]): 90% | Herbicidal action against LOLMU (LOLMU [6]): 80% | Herbicidal action against ALOMY (ALOMY [1]): 100% | Herbicidal action against ABUTH (ABUTH): 100% | Herbicidal action against PHBPU (PHBPU [2]; dose 80 g a.c./ha): 90% | Herbicidal action against PAPRH (PAPRH): 95% | Herbicidal action against ALOMY (ALOMY [3]): 80% | Herbicidal action against MATIN (MATIN): 95% | Herbicidal action against LOLMU (LOLMU [7]): 90% | Herbicidal action against VIOTR (VIOTR): 100% | Herbicidal action against PHBPU (PHBPU [4]): 80%

CCn1ncc(C(=O)c2ccc(C(F)(F)F)c(S(C)(=O)=O)c2C)c1O
Herbicidal action against ALOMY (ALOMY [1]): 50% | Herbicidal action against POLCO (POLCO): 60% | Herbicidal action against CYPES (CYPES): 60%

Cc1nn(C)c(O)c1C(=O)c1ccc(C(F)(F)F)c(S(C)(=O)=O)c1C
Herbicidal action against ALOMY (ALOMY [1]): 50% | Herbicidal action against CYPES (CYPES): 50% | Herbicidal action against AMARE (AMARE [8]): 90%

Cc1nn(C)c(O)c1C(=O)c1ccc(C(F)(F)F)c([S+](C)[O-])c1C (stereo not shown)
Herbicidal action against AMARE (AMARE [5]): 50% | Herbicidal action against LOLMU (LOLMU [6]): 30% | Herbicidal action against ALOMY (ALOMY [1]): 60% | Herbicidal action against ABUTH (ABUTH): 80% | Herbicidal action against LOLMU (LOLMU [7]): 60% | Herbicidal action against VIOTR (VIOTR): 40%

Cc1c(C(=O)c2cnn(C)c2O)ccc(C(F)(F)F)c1S(C)(=O)=O
Herbicidal action against PHBPU (PHBPU [2]; dose 12.5 g a.c./ha): 50% | Herbicidal action against EPHHL (EPHHL): 45%

Cc1c(C(=O)C2C(=O)C3CCC(C3)C2=O)ccc(C(F)(F)F)c1S(C)(=O)=O (stereo not shown) [inventive compound No. 1-17]
Herbicidal action against ALOMY (ALOMY [1]): 90% | Herbicidal action against PHBPU (PHBPU [2]; dose 12.5 g a.c./ha): 85% | Herbicidal action against POLCO (POLCO): 100% | Herbicidal action against CYPES (CYPES): 90% | Herbicidal action against AMARE (AMARE [8]): 100% | Herbicidal action against EPHHL (EPHHL): 85%

Cc1c(C(=O)c2cnn(C)c2O)ccc(C(F)(F)F)c1[S+](C)[O-] (stereo not shown)
Herbicidal action against ALOMY (ALOMY [1]): 70% | Herbicidal action against PAPRH (PAPRH): 55% | Herbicidal action against MATIN (MATIN): 74% | Herbicidal action against VIOTR (VIOTR): 90% | Herbicidal action against PHBPU (PHBPU [4]): 50%
